Data reported in patent US9260488B2, “Replacement therapy for dental caries” (Oragenics, Inc., priority 2012, dated 2016).

What was measured:
Assay in all cases: Minimum inhibitory concentration (CLSI M07-8A, modified)
Format in all cases: cell-based
[1] = test system: Clostridium difficile UK1; conditions: peptide purified to about 90%; THyex medium; 24 hour incubation; anaerobic chamber at 37° C.
Protocol: (§1) Wild-type mutacin 1140, mutacin 1140 with a F1I mutation, mutacin 1140 with a W4A mutation, and mutacin 1140 with a R13D mutation was purified to about 90% purity (measured via HPLC). The minimum inhibitory concentration (MIC) of MU1140 and variants of MU1140 was determined against several bacteria. The MIC is the lowest concentration of MU1140 that will inhibit the visible growth of a microorganism after 24 hour incubation. A lower MIC is an indication of greater inhibitory activity. Preparation of the antimicrobial agent and bacterial inoculum for minimum inhibitory concentrations (MICs) was performed by following the method described in Clinical Laboratory Standard Institute (CLSI) M07-8A with some minor modifications. Streptococcus mutans UA159 was tested overnight in a shaking incubator to maintain uniform dispersion of the bacteria. Clostridium difficile UK1 was tested in an anaerobic chamber at 37° C. The medium used was THyex.

[2] = test system: Micrococcus luteus ATCC10240; conditions: peptide purified to about 90%; THyex medium; 24 hour incubation
Protocol: as §1

[3] = test system: Staphylococcus aureus FA1; conditions: peptide purified to about 90%; THyex medium; 24 hour incubation
Protocol: as §1

[4] = test system: Streptococcus mutans UA159; conditions: peptide purified to about 90%; THyex medium; 24 hour incubation; shaking incubator overnight
Protocol: as §1

[5] = test system: Streptococcus pneumonia FA1; conditions: peptide purified to about 90%; THyex medium; 24 hour incubation
Protocol: as §1

For “Mu1140 Wild-type: wild-type lantibiotic mutacin MU1140 (SEQ ID NO:1) produced by S. mutans strain JH1140 (ATCC 55676)”, the “MIC Clostridium difficile UK1” value [1] was 16, the “MIC Micrococcus luteus ATCC10240” value [2] was 0.0625 and the “MIC Staphylococcus aureus FA1” value [3] was 16. For the same substance, the “MIC Streptococcus mutans UA159” value [4] was 2 and the “MIC Streptococcus pneumonia FA1” value [5] was 0.5.
